Results: patent publication US9850283B2, “Macrocyclic inhibitors of the PD-1/PD-L1 and CD80(B7-1)/PD-L1 protein/protein interactions” (BRISTOL-MYERS SQUIBB COMPANY, priority 2013, dated 2017)
Like-named read-outs stand apart in the source and are kept apart here. Positions of bridges follow the written chain, without caps; N, C: chain ends. Non-standard residues stand in square brackets, D forms with d. Residues, ends and D or L forms follow the SMILES beside them. Phe(4-guanidino) = N=C(N)Nc1ccc(C[C@H](N)C(=O)O)cc1; Phe(3-CF3) = N[C@@H](Cc1cccc(C(F)(F)F)c1)C(=O)O; Phe(2,4-Cl2) = N[C@@H](Cc1ccc(Cl)cc1Cl)C(=O)O; Phe(4-F) = N[C@@H](Cc1ccc(F)cc1)C(=O)O; Bta = N[C@@H](Cc1csc2ccccc12)C(=O)O; cisHyp = O=C(O)[C@@H]1C[C@H](O)CN1; Hyp = O=C(O)[C@@H]1C[C@@H](O)CN1; NMeF = CN[C@@H](Cc1ccccc1)C(=O)O; NMeNle = CCCC[C@H](NC)C(=O)O; NMeA = CN[C@@H](C)C(=O)O; Orn = NCCC[C@H](N)C(=O)O; Dab = NCC[C@H](N)C(=O)O; Dap = NC[C@H](N)C(=O)O; Sar = CNCC(=O)O

Legend:
[1] = molecular target: T1, LK35.2-hPD-L1 cells / PE-labeled PD-1-Ig (Homo sapiens, UniProt Q9NZQ7); assay: LK35.2-hPD-L1 cell binding high-content screening assay; format: cell-based
T1 construct: expressed in transfected cells; host or cells: LK35.2 mouse B cell line
Procedure, shortened: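 Binding of PE-conjugated human PD-1-Ig (1 nM final) to human PD-L1 stably expressed on a mouse B-cell line (LK35.2) was measured by high-content imaging after washes. Compound and labeled PD-1-Ig were co-incubated 1 h at 37 °C with cells in RPMI/10% FCS.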

Human PD-L1/PD-1 = molecular target: T2, Human PD-L1/PD-1 (Homo sapiens, UniProt Q9NZQ7); assay: HTRF PD-1-Ig/PD-L1-His binding assay (human PD-L1)
T2 construct: made in house; host or cells: HEK293T
Procedure, shortened: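 Soluble PD-1-Ig binding to PD-L1-His measured by HTRF in dPBS with 0.1% BSA and 0.05% Tween-20. Detection used europium cryptate anti-Ig antibody (1 nM final) and APC anti-His antibody (20 nM final) added on top of the binding reaction.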

[2] = cluster symbol, cell line of CBA not given (LK35.2-hPD-L1 or 293T-hPD-L1), read-out: CBA IC50 cluster
[3] = cluster symbol, read-out: HTRF IC50 cluster
[4] = cell binding assay, cell line not given, value given instead of cluster, read-out: CBA IC50 value
[5] = value given instead of cluster, read-out: HTRF IC50 value
[6] = cell binding assay, cell line not given, cluster symbol, read-out: CBA IC50 cluster

T1 sequence (Q9NZQ7 19-290): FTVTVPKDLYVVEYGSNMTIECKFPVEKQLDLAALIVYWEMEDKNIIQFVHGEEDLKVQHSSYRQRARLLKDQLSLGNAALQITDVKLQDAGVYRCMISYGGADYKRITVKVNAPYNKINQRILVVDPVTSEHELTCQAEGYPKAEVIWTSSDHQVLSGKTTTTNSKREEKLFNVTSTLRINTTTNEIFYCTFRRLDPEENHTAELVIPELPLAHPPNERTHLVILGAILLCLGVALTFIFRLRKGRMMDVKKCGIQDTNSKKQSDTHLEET
T2 sequence (Q9NZQ7 with tags, fused parts or gaps): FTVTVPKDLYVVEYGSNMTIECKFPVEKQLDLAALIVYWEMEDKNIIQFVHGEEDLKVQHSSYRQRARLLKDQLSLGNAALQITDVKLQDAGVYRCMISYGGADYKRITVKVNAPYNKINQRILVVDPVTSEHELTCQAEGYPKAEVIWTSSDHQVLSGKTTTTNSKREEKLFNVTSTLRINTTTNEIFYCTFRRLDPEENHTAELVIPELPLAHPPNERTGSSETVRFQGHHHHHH

Row | SMILES | IC50 [1, 2] [nM] | IC50 (Human PD-L1/PD-1; [3]) [nM] | IC50 [1, 4] [nM] | IC50 (Human PD-L1/PD-1; [5]) [nM] | IC50 [1, 6] [nM]
1 | CCCC[C@H]1C(=O)N(C)[C@@H](CCCC)C(=O)N[C@@H](CCCN)C(=O)N[C@H](C(=O)NCC(N)=O)CSCC(=O)N[C@@H](Cc2ccc(O)cc2)C(=O)N2CCC[C@H]2C(=O)N[C@@H](CC(=O)O)C(=O)N2CCC[C@H]2C(=O)N[C@@H](CN)C(=O)N[C@@H](CC(C)C)C(=O)N2C[C@@H](O)C[C@H]2C(=O)N[C@@H](Cc2c[nH]c3ccccc23)C(=O)N[C@@H](CO)C(=O)N[C@@H](Cc2c[nH]c3ccccc23)C(=O)N1C [Example 1149] ({CH2CO}-YPDP[Dap]L[cisHyp]WSW[NMeNle][NMeNle][Orn]CG-NH2; thioether N-14) | 4.78 to 72.9 | 6.76 to 30.3 |  |  | 
2 | CCCC[C@H]1C(=O)N(C)CC(=O)N[C@@H](CC(=O)O)C(=O)N[C@@H](C(C)C)C(=O)N(C)[C@@H](Cc2ccccc2)C(=O)N[C@@H](Cc2ccc(O)cc2)C(=O)N(C)CC(=O)N[C@@H](Cc2cccc(C(F)(F)F)c2)C(=O)N[C@@H](Cc2ccc(O)cc2)C(=O)N[C@@H](CC(C)C)C(=O)N[C@H](C(=O)NCC(N)=O)CSCC(=O)N[C@@H](Cc2ccccc2)C(=O)N(C)[C@@H](Cc2ccccc2)C(=O)N1C [Example 3550] ({CH2CO}-F[NMeF][NMeNle][Sar]DV[NMeF]Y[Sar][Phe(3-CF3)]YLCG-NH2; thioether N-13) |  |  | 149 | 40.9 | 
3 | CCCC[C@H]1C(=O)N(C)[C@@H](CCCC)C(=O)N[C@@H](CCCNC(=N)N)C(=O)N[C@H](C(=O)NCC(N)=O)CSCC(=O)N[C@@H](Cc2ccc(O)cc2)C(=O)N(C)[C@@H](C)C(=O)N[C@@H](CC(N)=O)C(=O)N2CCC[C@H]2C(=O)N[C@@H](Cc2cnc[nH]2)C(=O)N[C@@H](CC(C)C)C(=O)N2CCC[C@H]2C(=O)N[C@@H](Cc2c[nH]c3ccccc23)C(=O)N[C@@H](CO)C(=O)N[C@@H](Cc2csc3ccccc23)C(=O)N1C [Example 1014] ({CH2CO}-Y[NMeA]NPHLPWS[Bta][NMeNle][NMeNle]RCG-NH2; thioether N-14) | 0.158 to 4.71 | 0.385 to 6.74 |  |  | 
4 | CCCC[C@H]1C(=O)N(C)CC(=O)N[C@@H](CC(=O)O)C(=O)N[C@@H](C(C)C)C(=O)N(C)[C@@H](Cc2ccccc2)C(=O)N[C@@H](Cc2ccc(O)cc2)C(=O)N(C)CC(=O)N[C@@H](Cc2ccc(Cl)cc2Cl)C(=O)N[C@@H](Cc2ccc(O)cc2)C(=O)N[C@@H](CC(C)C)C(=O)N[C@H](C(=O)NCC(N)=O)CSCC(=O)N[C@@H](Cc2ccccc2)C(=O)N(C)[C@@H](Cc2ccccc2)C(=O)N1C [Example 3549] ({CH2CO}-F[NMeF][NMeNle][Sar]DV[NMeF]Y[Sar][Phe(2,4-Cl2)]YLCG-NH2; thioether N-13) |  |  | 728 | 272 | 
5 | CCCC[C@H]1C(=O)N(C)[C@@H](CCCC)C(=O)N[C@@H](CCCNC(=N)N)C(=O)N[C@H](C(=O)NCC(N)=O)CSCC(=O)N[C@@H](Cc2ccc(N=C(N)N)cc2)C(=O)N(C)[C@@H](C)C(=O)N[C@@H](CC(N)=O)C(=O)N2CCC[C@H]2C(=O)N[C@@H](Cc2cnc[nH]2)C(=O)N[C@@H](CC(C)C)C(=O)N2C[C@H](O)C[C@H]2C(=O)N[C@@H](Cc2c[nH]c3ccccc23)C(=O)N[C@@H](CO)C(=O)N[C@@H](Cc2c[nH]c3ccccc23)C(=O)N1C [Example 7049] ({CH2CO}-[Phe(4-guanidino)][NMeA]NPHL[Hyp]WSW[NMeNle][NMeNle]RCG-NH2; thioether N-14) |  | > 30.5 |  |  | > 74.3
6 | CCCC[C@H]1C(=O)N(C)[C@@H](CCCC)C(=O)N[C@@H](CC(C)C)C(=O)N[C@H](C(=O)NCC(N)=O)CSCC(=O)N[C@@H](Cc2ccc(O)cc2)C(=O)N(C)[C@@H](C)C(=O)N[C@@H](CC(N)=O)C(=O)N2CCC[C@H]2C(=O)N[C@@H](Cc2cnc[nH]2)C(=O)N[C@@H](CCC(=O)O)C(=O)N2C[C@H](O)C[C@H]2C(=O)N[C@@H](Cc2csc3ccccc23)C(=O)N[C@@H](CCN)C(=O)N[C@@H](Cc2c[nH]c3ccccc23)C(=O)N1C [Example 5051] ({CH2CO}-Y[NMeA]NPHE[Hyp][Bta][Dab]W[NMeNle][NMeNle]LCG-NH2; thioether N-14) |  | > 30.5 |  |  | > 74.3
7 | CCCC[C@H]1C(=O)N(C)CC(=O)N[C@@H](CC(=O)O)C(=O)N[C@@H](C(C)C)C(=O)N(C)[C@@H](Cc2ccccc2)C(=O)N[C@@H](Cc2ccc(O)cc2)C(=O)N(C)CC(=O)N[C@@H](Cc2csc3ccccc23)C(=O)N[C@@H](Cc2ccc(O)cc2)C(=O)N[C@@H](CC(C)C)C(=O)N[C@H](C(=O)NCC(N)=O)CSCC(=O)N[C@@H](Cc2ccc(F)cc2)C(=O)N(C)[C@@H](Cc2ccccc2)C(=O)N1C [Example 3116] ({CH2CO}-[Phe(4-F)][NMeF][NMeNle][Sar]DV[NMeF]Y[Sar][Bta]YLCG-NH2; thioether N-13) | 0.158 to 4.71 | 0.385 to 6.74 |  |  | 
